Measured values as given in US20230117680A1, “CYCLOPHILIN D INHIBITORS AND USES THEREOF” (The Broad Institute, Inc., priority 2019, published 2023).
Entries after “also recorded” stand apart in the source; their conditions may differ.

Columns and labels:
CypH = CypH (Homo sapiens, UniProt O43447); assay: chymotrypsin coupled PPIase assay, CypH inhibition; assay type: biochemical; settings: result in words
Experimental: (§1) Following the synthesis of the indicated library members, in vitro inhibition (IC50) assays of these hits were conducted to obtain IC50 inhibitory data. For the IC50 assays, a chymotrypsin coupled PPIase assay using Suc-AAPF-AMC as the peptide substrate was used, whereby isomerization of a peptide substrate Suc-AAPF-AMC from the cis to trans conformation allowed for proteolysis via excess a-chymotrypsin, releasing the C-terminal coumarin fluorophore. […] Other non-inhibitor library members were also checked for binding via SPR, but produced the same profile as the prolyl isomerase assay.
(§2) Subsequently, to determine if the compounds could both access the S2 pocket and display CypD specificity, JOMBtrans and compound 49 were screened against the 10 other cyclophilins with reported prolyl isomerase activity. […] Co-crystal structures of JOMBtrans and 49 were solved with CypD. […] Three further H-bonds with the macrocycle's backbone and CypD were observed along with a cation-n interaction. […] The benzyl group on the piperidine ring altered the conformation of the macrocycle to open up two new hydrogen bonding interactions with CypD. […] This improvement in specificity compared to JOMBtrans signified that more CypD specific compounds can be garnered by derivatization into the S2 pocket.

CypG = molecular target: T1, CypG (Homo sapiens, UniProt Q13427); assay: chymotrypsin coupled PPIase assay, CypG inhibition; assay type: biochemical; settings: result in words
T1 sequence (Q13427 1-754): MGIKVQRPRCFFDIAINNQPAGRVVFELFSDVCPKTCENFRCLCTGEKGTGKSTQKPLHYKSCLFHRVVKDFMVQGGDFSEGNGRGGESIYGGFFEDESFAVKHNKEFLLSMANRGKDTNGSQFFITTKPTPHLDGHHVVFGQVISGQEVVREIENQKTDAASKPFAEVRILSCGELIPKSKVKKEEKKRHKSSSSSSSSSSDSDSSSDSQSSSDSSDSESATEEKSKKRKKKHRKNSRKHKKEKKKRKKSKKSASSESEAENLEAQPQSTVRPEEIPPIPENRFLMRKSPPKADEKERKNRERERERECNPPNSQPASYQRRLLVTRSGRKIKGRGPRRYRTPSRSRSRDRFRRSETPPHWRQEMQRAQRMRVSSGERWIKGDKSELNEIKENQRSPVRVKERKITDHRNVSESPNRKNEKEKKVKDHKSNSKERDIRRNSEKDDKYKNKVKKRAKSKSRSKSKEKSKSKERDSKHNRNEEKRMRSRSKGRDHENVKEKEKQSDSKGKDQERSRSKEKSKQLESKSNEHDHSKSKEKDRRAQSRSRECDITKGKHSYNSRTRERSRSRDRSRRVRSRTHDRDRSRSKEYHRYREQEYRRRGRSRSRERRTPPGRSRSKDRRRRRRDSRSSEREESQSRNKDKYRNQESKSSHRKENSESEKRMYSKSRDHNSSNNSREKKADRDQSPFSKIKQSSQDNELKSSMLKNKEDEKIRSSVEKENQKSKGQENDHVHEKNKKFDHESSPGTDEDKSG
Experimental: as §1, §2

PPWD1 = molecular target: T2, PPWD1 (Homo sapiens, UniProt Q96BP3); assay: chymotrypsin coupled PPIase assay, PPWD1 inhibition; assay type: biochemical; settings: result in words
T2 sequence (Q96BP3 1-646): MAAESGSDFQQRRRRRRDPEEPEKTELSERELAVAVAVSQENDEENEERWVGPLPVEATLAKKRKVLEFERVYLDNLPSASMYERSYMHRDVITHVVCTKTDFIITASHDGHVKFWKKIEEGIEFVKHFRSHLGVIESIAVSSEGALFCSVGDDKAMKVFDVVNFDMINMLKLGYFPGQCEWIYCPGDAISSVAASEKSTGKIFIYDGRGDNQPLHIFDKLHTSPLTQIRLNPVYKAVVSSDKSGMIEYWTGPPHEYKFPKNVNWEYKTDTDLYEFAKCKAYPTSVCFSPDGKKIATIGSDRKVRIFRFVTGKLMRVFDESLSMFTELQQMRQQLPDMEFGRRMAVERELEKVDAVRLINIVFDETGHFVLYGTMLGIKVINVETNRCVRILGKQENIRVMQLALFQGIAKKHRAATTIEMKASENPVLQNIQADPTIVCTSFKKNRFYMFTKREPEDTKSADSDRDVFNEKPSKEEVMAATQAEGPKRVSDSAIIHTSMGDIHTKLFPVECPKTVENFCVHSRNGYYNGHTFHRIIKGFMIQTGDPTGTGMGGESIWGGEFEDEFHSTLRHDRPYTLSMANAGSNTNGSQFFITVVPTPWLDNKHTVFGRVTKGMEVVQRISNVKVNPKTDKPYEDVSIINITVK
Experimental: as §1, §2

NKTR = molecular target: T3, NKTR (Homo sapiens, UniProt P30414); assay: chymotrypsin coupled PPIase assay, NKTR inhibition; assay type: biochemical; settings: result in words
T3 sequence (P30414 1-1462): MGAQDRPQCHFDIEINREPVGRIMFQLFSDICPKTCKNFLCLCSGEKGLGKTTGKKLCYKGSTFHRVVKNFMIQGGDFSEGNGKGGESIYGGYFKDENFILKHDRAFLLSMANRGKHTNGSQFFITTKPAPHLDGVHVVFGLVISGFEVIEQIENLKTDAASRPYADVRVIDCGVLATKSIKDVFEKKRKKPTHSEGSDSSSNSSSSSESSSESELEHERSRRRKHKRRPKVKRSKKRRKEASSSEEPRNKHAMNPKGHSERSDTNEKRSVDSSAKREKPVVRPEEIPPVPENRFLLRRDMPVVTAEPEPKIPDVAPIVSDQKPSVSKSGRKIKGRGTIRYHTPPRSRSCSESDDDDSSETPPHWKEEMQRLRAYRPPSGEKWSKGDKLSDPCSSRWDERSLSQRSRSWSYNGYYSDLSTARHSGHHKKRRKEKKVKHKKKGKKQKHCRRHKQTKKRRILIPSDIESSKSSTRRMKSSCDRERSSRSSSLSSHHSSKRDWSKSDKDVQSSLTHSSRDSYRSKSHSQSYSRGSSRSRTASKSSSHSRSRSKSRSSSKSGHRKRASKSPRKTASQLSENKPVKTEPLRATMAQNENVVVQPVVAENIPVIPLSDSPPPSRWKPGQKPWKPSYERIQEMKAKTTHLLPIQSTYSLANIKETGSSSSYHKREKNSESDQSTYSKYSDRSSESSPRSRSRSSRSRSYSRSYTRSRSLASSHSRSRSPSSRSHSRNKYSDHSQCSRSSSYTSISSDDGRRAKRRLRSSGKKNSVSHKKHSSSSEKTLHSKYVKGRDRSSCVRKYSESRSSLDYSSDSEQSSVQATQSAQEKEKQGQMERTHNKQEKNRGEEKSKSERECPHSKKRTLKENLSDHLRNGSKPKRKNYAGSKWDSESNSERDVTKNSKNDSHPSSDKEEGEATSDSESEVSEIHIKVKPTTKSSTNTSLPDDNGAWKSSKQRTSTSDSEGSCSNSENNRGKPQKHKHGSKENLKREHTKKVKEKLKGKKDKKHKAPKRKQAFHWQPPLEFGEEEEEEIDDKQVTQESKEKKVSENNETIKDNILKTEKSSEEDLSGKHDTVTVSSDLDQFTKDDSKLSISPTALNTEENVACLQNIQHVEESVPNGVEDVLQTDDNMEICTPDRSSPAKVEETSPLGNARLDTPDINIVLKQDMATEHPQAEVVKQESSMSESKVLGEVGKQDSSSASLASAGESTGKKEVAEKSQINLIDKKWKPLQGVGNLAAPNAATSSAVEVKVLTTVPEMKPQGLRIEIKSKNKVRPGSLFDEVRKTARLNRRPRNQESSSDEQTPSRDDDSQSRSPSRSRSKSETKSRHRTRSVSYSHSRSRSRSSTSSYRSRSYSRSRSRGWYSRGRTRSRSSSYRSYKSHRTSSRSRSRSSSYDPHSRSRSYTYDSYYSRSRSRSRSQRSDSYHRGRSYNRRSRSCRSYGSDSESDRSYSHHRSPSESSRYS
Experimental: as §1, §2

mPTP = assay: inhibition of mPTP in in vitro cell culture; assay type: cell-based; settings: result in words
Experimental: As disclosed herein, macrocycle inhibitors of cyclophilin D have been discovered and designed with previously unparalleled specificity. An active site binder displaying weak inhibition (IC50=15 uM) and no selectivity profile was initially optimized to 200 nM. CypD specificity was designed by building into S2 pocket residues. Bi-phenyl para-carboxylates provided the greatest level of potency (<2-30 nM) and selectivity for CypD. Co-crystal structures of these macrocycles bound to CypD were solved, and a dual binding mode was determined between active site and S2 pocket. MD simulations of co-crystal structures were conducted to observe dynamic interactions of carboxylate with S2 pocket. Initial proof of target engagement was determined via inhibition of the mPTP.

[1] = tested on: mPTP in isolated mice kidney mitochondria; assay: inhibition of mPTP in isolated mitochondria (tolerated Ca2+ pulses before full mPTP opening); settings: result in words
Experimental: In isolated mice kidney mitochondria, the maximum number of Ca^2+ pulses that could be tolerated before full mPTP opening was measured (see FIG. 24).

[2] = tested on: 10 other cyclophilins with reported prolyl isomerase activity; assay: cyclophilin specificity screen: CypD against the other cyclophilins; assay type: biochemical; settings: result in words
Source text: (§3) The selectivity of a compound described herein in inhibiting the activity of a first cyclophilin (e.g., CypD) over a second cyclophilin may be measured by the quotient of the IC50 value of the compound in inhibiting the activity of the second cyclophilin over the IC50 value of the compound in inhibiting the activity of the first cyclophilin. The selectivity of a compound described herein in modulating the activity of a first cyclophilin over a second cyclophilin may also be measured by the quotient of the Kd value of an adduct of the compound and the second cyclophilin over the Kd value of an adduct of the compound and the first cyclophilin (e.g., CypD). […] In certain embodiments, selectivity for inhibiting a first cyclophilin over other cyclophilins is measured by Surface Plasmon Resonance (SPR) assays as disclosed in the Examples.
(§4) Following the synthesis of the indicated library members, in vitro inhibition (IC50) assays of these hits were conducted to obtain IC50 inhibitory data. For the IC50 assays, a chymotrypsin coupled PPIase assay using Suc-AAPF-AMC as the peptide substrate was used, whereby isomerization of a peptide substrate Suc-AAPF-AMC from the cis to trans conformation allowed for proteolysis via excess a-chymotrypsin, releasing the C-terminal coumarin fluorophore.
Subsequently, to determine if the compounds could both access the S2 pocket and display CypD specificity, JOMBtrans and compound 49 were screened against the 10 other cyclophilins with reported prolyl isomerase activity. […] Co-crystal structures of JOMBtrans and 49 were solved with CypD.

CypD = CypD (Homo sapiens, UniProt P30405); assay: chymotrypsin coupled PPIase assay (Suc-AAPF-AMC substrate), CypD inhibition; assay type: biochemical
CypD, sequence (P30405 30-207): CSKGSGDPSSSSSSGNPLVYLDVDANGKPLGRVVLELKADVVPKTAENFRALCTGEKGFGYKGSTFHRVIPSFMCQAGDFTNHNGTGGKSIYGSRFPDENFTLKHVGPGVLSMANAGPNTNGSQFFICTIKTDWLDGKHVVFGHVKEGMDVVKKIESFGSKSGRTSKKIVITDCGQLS
Source text: as §3, §4

CypH, sequence (O43447 whole entry): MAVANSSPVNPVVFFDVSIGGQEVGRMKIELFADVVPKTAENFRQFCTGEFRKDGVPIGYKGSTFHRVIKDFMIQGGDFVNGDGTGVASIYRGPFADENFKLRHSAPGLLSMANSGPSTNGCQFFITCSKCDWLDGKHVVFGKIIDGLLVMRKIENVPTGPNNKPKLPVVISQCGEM

| inhibition of CypH (CypH) | inhibition of CypG (CypG) | inhibition of PPWD1 (PPWD1) | inhibition of NKTR (NKTR) | IC50 (CypD; read-out: potency for CypD) [nM] | potency for CypD (in words) (CypD; result in words) | Compound | rescue of mPTP in cell culture (mPTP) | number of tolerated Ca2+ pulses before full mPTP opening [1] | specificity / selectivity profile for CypD (in words) [2] |
| --- | --- | --- | --- | --- | --- | --- | --- | --- | --- |
| abolished inhibition | abolished inhibition | abolished inhibition | abolished inhibition | – | – | NCCOCCNC(=O)[C@@H]1CCNC(=O)/C=C/C(=O)N2CCC[C@](Cc3ccccc3)(C2)C(=O)N[C@@H](Cc2ccc(C(=O)c3ccccc3)cc2)C(=O)NCc2ccccc2CC(=O)N1 [A-1] | – | – | – |
| – | – | – | – | – | – | CC(=O)c1ccc(-c2ccc(C[C@@H]3NC(=O)[C@]4(Cc5ccccc5)CCCN(C4)C(=O)/C=C/C(=O)NCC[C@@H](C(=O)NCCOCCN)NC(=O)Cc4ccccc4CNC3=O)cc2)cc1 [A-22] | minimal rescue | extend Ca^2+ loading | – |
| abolished inhibition | abolished inhibition | abolished inhibition | abolished inhibition | – | – | CC(C)(C)c1ccc(C[C@@H]2NC(=O)[C@]3(Cc4ccccc4)CCCN(C3)C(=O)/C=C/C(=O)NCC[C@@H](C(=O)NCCOCCN)NC(=O)Cc3ccccc3CNC2=O)cc1 [A-9] | – | – | – |
| – | – | – | – | 2.5 | high potency | NCCOCCNC(=O)[C@@H]1CCNC(=O)/C=C/C(=O)N2CCC[C@](Cc3ccccc3)(C2)C(=O)N[C@@H](Cc2ccc(-c3ccc(CCC(=O)O)cc3)cc2)C(=O)NCc2ccccc2CC(=O)N1 [A-81] | appears to not rescue mPTP | extend Ca^2+ loading | high specificity; also recorded: drastic preference for inhibition of CypD |
